One series deals with T1, PXR (Homo sapiens, UniProt O75469).
T1 construct: host or cells: DPX2 cells
T1 sequence (O75469 1-434): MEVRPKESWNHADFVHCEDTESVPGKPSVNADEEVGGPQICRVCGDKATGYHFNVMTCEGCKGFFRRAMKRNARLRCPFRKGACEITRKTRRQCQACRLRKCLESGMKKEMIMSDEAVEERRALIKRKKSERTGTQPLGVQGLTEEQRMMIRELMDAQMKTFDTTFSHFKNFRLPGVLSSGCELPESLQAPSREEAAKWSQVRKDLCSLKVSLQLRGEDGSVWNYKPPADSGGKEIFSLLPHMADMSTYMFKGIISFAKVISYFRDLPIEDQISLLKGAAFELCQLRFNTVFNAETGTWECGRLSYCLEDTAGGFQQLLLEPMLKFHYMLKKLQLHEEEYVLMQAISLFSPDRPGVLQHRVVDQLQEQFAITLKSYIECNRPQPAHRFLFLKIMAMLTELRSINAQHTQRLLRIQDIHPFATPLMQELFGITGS
The series is described as follows: PXR activation test in stably transfected DPX2 cells. It is filed as cell-based. The settings on record: for PXR activation fold (10 μM) / PXR activation fold (30 μM): DPX2 cells, 48 h; for activation activity on PXR at 30 μM (in words): summary of Table 10. How it is done: In this example, the compound was tested for PXR activation.
100 μL of stably transfected DPX2 cells were seeded per well of a 96-well cell culture plate (4.5×10^5 cells/mL in Puracyp medium), followed by placing the 96-well plate in a 37° C. incubator. After 24 h, the 96-well plate was taken out from the incubator, the medium was replaced with 100 μL of the test compound (at a final concentration of 10 μM and 30 μM), positive control compound rifampicin (at a final concentration of 10 μM), and the DMSO treatment group (at a final concentration of 0.1%), and 3 replicate wells were set. The test plate was placed back into the incubator. After 24 h, the medium was replaced with the freshly prepared test compound and rifampicin solution, and the test plate was again placed back into the incubator. After the compound was treated for 48 h, the test plate was taken out from the incubator. The medium in the wells was discarded, the plate was washed twice with PBS, 50 μL of medium containing 1×CellTiter-Fluor™ Cell Viability Assay reagent was added, and the mixture was incubated at 37° C. for 30 min. The test plate was taken out and equilibrated to room temperature, and the fluorescence signal under the conditions of 400 nm excitation light/505 nm emission light was detected by a microplate reader.
Subsequently, 50 μL of medium containing ONE-Glo Assay reagent was added to each well, and the plate was shaken, mixed well, and incubated at room temperature for 5 min. Chemiluminescence was detected by a microplate reader. The data was analyzed to evaluate the PXR activation of the test compound.

Series [1] in a line: Metabolic stability test in hepatocytes, mouse. The settings on record: hepatocytes (suspension), Table 5: metabolic stability in hepatocytes, up to 90 min, read-out: Metabolic half-life in mouse liver microsome (T½, min). It is filed as in vitro ADME. The method, then:
This experimental example was used to test the metabolic stability of the compounds in hepatocytes.
A suspension of hepatocytes was prepared at 0.5×10^6/mL with a pre-heated medium, then 198 μL of the pre-heated cell suspension was added to a 96-well plate. To each well of the 96-well plate, 2 μL of the test compound was added so that the final concentration was 1 μM, and 2 replicate wells were set. For the T=0 min sample, the compound was mixed well with the cells for 1 min, then […] was immediately added to 125 μL of a stop solution (an acetonitrile solution containing 200 ng/mL tolbutamide and 200 ng/mL labetalol) under an ice bath and mixed well. At the same time, all the plates were placed in an incubator at 37° C. with 5% CO2, with the shaker set at 600 rpm. The sample was mixed well at 15, 30, 60, and 90 min of incubation, respectively, and 25 μL of the sample was added to 125 μL of a stop solution (an acetonitrile solution containing 200 ng/mL tolbutamide and 200 ng/mL labetalol) under an ice bath, mixed well, and shaken at 500 rpm for 10 min. Subsequently, the plate was centrifuged for 20 min at 3220×g at 4° C. After the centrifugation was completed, 80 μL of the supernatant from each well was transferred to another 96-well plate containing 240 μL of ultrapure water. Subsequently, analysis was carried out using LC-MS/MS, and intrinsic clearance (CLint) and half-life (T½) were calculated.

Series [2] is described as follows: Stability test in liver microsomes, human. The series is classed as in vitro ADME, humans. The settings on record: human liver microsomes 0.5 mg/mL, 1.0 μM substrate, up to 60 min; read-out: Metabolic half-life in human liver microsome ( T1/2, min).
In series [3] the test system is Human colorectal adenocarcinoma cells HCT116-MTAP-KO. In words: Mouse xenograft tumor pharmacodynamic model, HCT116-MTAP-KO. It is filed as in vivo. How it is done: In this example, the in vivo efficacy of the compound in a mouse xenograft tumor model after intragastric (PO) administration was tested.
Human colorectal adenocarcinoma cells HCT116-MTAP-KO were cultured in monolayer in vitro under the condition of McCoy's 5A medium containing 10% fetal bovine serum and 1% penicillin and streptomycin, and the culture was carried out at 37° C. with 5% CO2. The cells were digested with trypsin three times a week for passaging. When the saturation degree of the cells was 80-90%, the cells were collected, counted and inoculated. 0.1 mL (5×10^6 cells) of HCT116-MTAP-KO cells were subcutaneously inoculated on the right back of each mouse. On day 16 after inoculation of the cells, the mean tumor volume reached 154 mm^3. The mice were randomly grouped for administration and intragastrically dosed once daily. Changes in body weight and tumor volume were recorded. After a certain number of days of administration, the experiment was ended. Tumor volume changes and mouse body weight changes were counted and analyzed. AG270 (CAS: 2201056-66-6) was the positive control compound.

For a further series, the target named is T2, CYP3A4 (Homo sapiens, UniProt P08684).
T2 construct: from tissue; host or cells: liver microsome
In words: Cytochrome oxidase P450 inhibition test, CYP3A4. The series is classed as in vitro ADME. Conditions: liver microsome incubation. The method, then: 100 mM K-Buffer: 9.5 mL of stock solution A was mixed with 40.5 mL of stock solution B, the total volume was adjusted to […] with ultrapure water, and the buffer was titrated to pH 7.4 with KOH or H3PO4. • Starting material A (1 M potassium dihydrogen phosphate): 136.5 g of potassium dihydrogen phosphate in 1 L of water. • Stock B […] in 1 L of water. The test substance powder was prepared into a stock solution with a certain concentration using DMSO or other organic solvents, which was then further diluted using a proper organic solvent. The extracorporeal incubation system for CYP450 enzyme metabolism phenotype study was biochemical reaction of a prepared liver microsome, a redox coenzyme, and an enzyme-specific selective inhibitor in simulated physiological temperature and environment. The concentration of the parent drug or a metabolite thereof in the incubation solution was determined by LC-MS/MS.

pIC50: −log10 of the molar value.

T2 sequence (P08684 whole entry): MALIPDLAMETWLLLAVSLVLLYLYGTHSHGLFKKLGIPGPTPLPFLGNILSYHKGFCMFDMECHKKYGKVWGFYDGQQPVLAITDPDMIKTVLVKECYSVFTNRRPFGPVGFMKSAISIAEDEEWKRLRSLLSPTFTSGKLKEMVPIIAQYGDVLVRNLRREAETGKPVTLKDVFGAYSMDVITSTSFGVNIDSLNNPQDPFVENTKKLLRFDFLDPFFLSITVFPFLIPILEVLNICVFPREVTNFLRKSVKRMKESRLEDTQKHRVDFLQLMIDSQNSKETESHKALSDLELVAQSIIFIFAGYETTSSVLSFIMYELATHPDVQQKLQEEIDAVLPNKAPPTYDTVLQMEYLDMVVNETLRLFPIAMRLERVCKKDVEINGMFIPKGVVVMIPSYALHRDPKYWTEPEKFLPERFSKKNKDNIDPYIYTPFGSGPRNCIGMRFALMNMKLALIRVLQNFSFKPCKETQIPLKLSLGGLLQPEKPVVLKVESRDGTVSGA

For the compound `O=c1c2n[nH]cc2c2ccc(C(F)(F)F)nc2n1-c1cccnc1` [Compound B178], at PXR, the “PXR activation fold (10 μM)” value came to 7.47 fold and the “PXR activation fold (30 μM)” value is given as 34.49 fold.

Consider `Cn1cc2c(n1)c(=O)n(-c1cccc(O)c1)c1nc(C(F)(F)F)ccc21` [Compound B148], for which the figures for the half-life at 1 μM in series [1] and in series [2] were 14.9 min and above 145 min, respectively.

Turning to `Cn1cc2c(n1)c(=O)n(-c1cccc3[nH]ncc13)c1cc(Cl)c(F)cc21` [Compound B257], the “Tumor growth inhibition percentage (TGI)” value in series [3] (PO 1 mg/kg once a day, 15 days of administration) was “once a day TGI = 77.29%”. Moreover, in series [3] (PO 1 mg/kg once a day, 28 days of administration), the “Tumor growth inhibition percentage (TGI)” value was “once a day TGI = 51.34%”. Besides, the “Tumor growth inhibition percentage (TGI)” value in series [3] (PO 3 mg/kg once a day, 28 days of administration) is given as “once a day TGI = 87.78%”. At PXR, the “activation activity on PXR at 30 μM (in words)” value was “very weak”, the “PXR activation fold (10 μM)” value is 3.37 fold and the “PXR activation fold (30 μM)” value was determined as 7.87 fold.

Regarding `Cn1cc2c(n1)c(=O)n(-c1cccc3[nH]ncc13)c1cc(Cl)ccc21` [Compound B60], the half-life at 1 μM in series [2] was determined as 722 min. On CYP3A4, the pIC50 is below 5.00. At PXR, the “PXR activation fold (10 μM)” value is recorded as 7.06 fold and the “PXR activation fold (30 μM)” value was determined as 21.71 fold.

On to `Cc1ncccc1-n1c(=O)c2nn(C)cc2c2ccc(C(F)(F)F)nc21` (single isomer, unassigned) [Compound B180], for which the half-life at 1 μM in series [1] stood at 47.1 min. In addition, at CYP3A4, the pIC50 is below 5.00.

On to `Cn1cc2c(n1)c(=O)n(-c1cccc3[nH]ncc13)c1cc(Cl)c(C#N)cc21` [Compound B258], for which the “Tumor growth inhibition percentage (TGI)” value is given as “once a day TGI = 52.48%” in series [3] (PO 3 mg/kg once a day, 15 days of administration); “once a day TGI = 72.58%” in series [3] (PO 10 mg/kg once a day, 15 days of administration); “once a day TGI = 81.2%” in series [3] (PO 30 mg/kg once a day, 15 days of administration); “once a day TGI = 83.75%” in series [3] (PO 100 mg/kg once a day, 15 days of administration).

Take `Cn1cc2c(n1)c(=O)n(-c1cccnc1C1CC1)c1cc(Cl)c(F)cc21` [Compound B340]: the half-life at 1 μM in series [1] came to 124 min. For the same compound, the “Tumor growth inhibition percentage (TGI)” value in series [3] (PO 3 mg/kg once a day, 22 days of administration) is recorded as “once a day TGI = 48.04%”; in series [3] (PO 10 mg/kg once a day, 22 days of administration) it was “once a day TGI = 61.99%”; in series [3] (PO 30 mg/kg once a day, 22 days of administration) it was “once a day TGI = 72.55%”.

For `Cn1cc2c(n1)c(=O)n(-c1cccnc1)c1cc(Cl)ccc21` [Compound B12], the half-life at 1 μM in series [1] is 68.8 min; in series [2], above 145 min. Also, the pIC50 on CYP3A4 is below 5.00.

In the case of `Cn1cc2c(n1)c(=O)n(-c1cccc3[nH]ncc13)c1nc(C(F)(F)F)ccc21` [Compound B181], the half-life at 1 μM in series [1] amounted to 91.1 min. In addition, the half-life at 1 μM in series [2] is above 145 min. For the same compound, on CYP3A4, the pIC50 was below 4.52. Further, on PXR, the “activation activity on PXR at 30 μM (in words)” value was “very weak”, the “PXR activation fold (10 μM)” value was found to be 3.63 fold and the “PXR activation fold (30 μM)” value was 3.77 fold.

With `Cn1cc2c(n1)c(=O)n(-c1ccccc1Cl)c1nc(C(F)(F)F)ccc21` [Compound B182], the half-life at 1 μM in series [2] was 258 min.

The values above are taken from US20240391923A1, “METHIONINE ADENOSYLTRANSFERASE 2A INHIBITOR FOR TREATING MTAP DELETION-TYPE CANCER” (SUZHOU GENHOUSE BIO CO., LTD., priority 2022, published 2024).
